The source of these data is patent publication US10501438B2, “Aryl-substituted dihydroquinolinones, their preparation and their use as pharmaceuticals” (NEOMED Institute, priority 2015, dated 2019).

Structures are written as SMILES.

One test has as its system human C-Myc transcription in MV-4-11 cells. Kind of test: Transcription of human C-Myc in human leukemic MV-4-11 cells (QuantiGene 2.0). In kind it is cell-based. Particulars: Homo sapiens, MV4-11, 4 h, inhibition of C-Myc mRNA, 4 hours treatment. The method, then:
b) Transcription of Human C-Myc in Human Leukemic MV-4-11 Cells:
The effect of compounds on transcription of human C-Myc gene is monitored in human B-myelomonocytic leukemia cell line MV-4-11 (from American Type Culture Collection (ATCC), Manassas, Va., USA) using QuantiGene 2.0 assay kit (Affymetrix, Santa Clara, Calif., USA).
Typically, 8,000 MV-4-11 cells are plated in sterile 96-well plates (Costar #3598 from Fisher Scientific Canada, Ottawa, Ontario, Canada) in Iscove's medium supplemented with 10% fetal bovine serum, glutamine (2 mM), and penicillin (100 I.U.) and streptomycin (100 μg/mL) (all from Wisent Inc., St. Bruno, Quebec, Canada). Compounds are dissolved in DMSO at 30 mM. A series of 1:3 dilutions are first made in DMSO, and further 1:100 dilutions are made in serum-containing cell culture media. The final concentration of DMSO is 0.1% in cell culture media. After cells are treated with various concentrations of test compound for 4 hours, cells are lysed using Quantigene 2.0 sample processing kit (#QS0100). C-Myc mRNA is detected using a QuantiGene 2.0 assay kit (#QS0009) with gene-specific probe to human C-Myc (#SA-50182) following the manufacturer's recommendations. Luminescene signals are read on Flexstation II microplate reader (Molecular Devices, Sunnyvale, Calif., USA).
Regarding `Cc1cc(-c2cc3c(c(CNC4CCCCC4)c2)NC(=O)CC3)cn(C)c1=O` [Compound 24, 8-[(cyclohexylamino)methyl]-6-(1,5-dimethyl-6-oxo-3-pyridyl)-3,4-dihydro-1H-quinolin-2-one], the IC50 was determined as 830 nM.

As for `Cc1ccc(COc2cc(-c3cc(C)c(=O)n(C)c3)cc3c2NC(=O)CC3)nc1` [Compound 75, 6-(1,5-dimethyl-6-oxo-1,6-dihydropyridin-3-yl)-8-((5-methylpyridin-2-yl)methoxy)-3,4-dihydroquinolin-2(1H)-one], the IC50 turned out to be 180 nM.

`Cc1cc(-c2cc3c(c(OCC4CCCCC4)c2)NC(=O)CC3)cn(C)c1=O` [Compound 71] came in with an IC50 of 540 nM.

In turn, `Cc1cc(-c2cc3c(c(OCC4CCCCO4)c2)NC(=O)CC3)cn(C)c1=O` (centres unmarked) [Compound 55a, 6-(1,5-dimethyl-6-oxo-1,6-dihydropyridin-3-yl)-8-((tetrahydro-2H-pyran-2-yl)methoxy)-3,4-dihydroquinolin-2(1H)-one] registered an IC50 of 580 nM.

In turn, `Cc1cc(-c2cc3c(c(OCc4cocn4)c2)NC(=O)CC3)cn(C)c1=O` [Compound 84, 6-(1,5-dimethyl-6-oxo-1,6-dihydropyridin-3-yl)-8-(oxazol-4-ylmethoxy)-3,4-dihydroquinolin-2(1H)-one] came in with an IC50 of 510 nM.

The molecule `Cc1cccnc1COc1cc(-c2cc(C)c(=O)n(C)c2)cc2c1NC(=O)CC2` [Compound 76, 6-(1,5-dimethyl-6-oxo-1,6-dihydropyridin-3-yl)-8-((3-methylpyridin-2-yl)methoxy)-3,4-dihydroquinolin-2(1H)-one] displayed an IC50 of 560 nM.

`Cc1cc(-c2cc3c(cc2Cc2cccnc2)CCC(=O)N3)cn(C)c1=O` [Compound 101, 7-(1,5-dimethyl-6-oxo-1,6-dihydropyridin-3-yl)-6-(pyridin-3-ylmethyl)-3,4-dihydroquinolin-2(1H)-one] returned an IC50 of 2680 nM.

For `Cc1cc(-c2cc3c(c(O[C@@H](C)c4ccccn4)c2)NC(=O)CC3)cn(C)c1=O` [Compound 74a, (S)-6-(1,5-dimethyl-6-oxo-1,6-dihydropyridin-3-yl)-8-(1-(pyridin-2-yl)ethoxy)-3,4-dihydroquinolin-2(1H)-one], the IC50 was found to be 120 nM.

`Cc1cc(-c2cc3c(c(COCC(F)(F)F)c2)NC(=O)CC3)cn(C)c1=O` [Compound 46, 6-(1,5-dimethyl-6-oxo-1,6-dihydropyridin-3-yl)-8-((2,2,2-trifluoroethoxy)methyl)-3,4-dihydroquinolin-2(1H)-one] gave an IC50 of 910 nM.

The molecule `Cc1cc(-c2ccc3c(c2Cc2cccc(C#N)c2)CCC(=O)N3)cn(C)c1=O` [Compound 88, 3-((6-(1,5-dimethyl-6-oxo-1,6-dihydropyridin-3-yl)-2-oxo-1,2,3,4-tetrahydroquinolin-5-yl)methyl)benzonitrile] gave an IC50 of 260 nM.

As for `Cc1cc(-c2cc3c(c(OC4CCCCC4)c2)NC(=O)CC3)cn(C)c1=O` [Compound 16, 8-(cyclohexyloxy)-6-(1,5-dimethyl-6-oxo-1,6-dihydropyridin-3-yl)-3,4-dihydroquinolin-2(1H)-one], the IC50 turned out to be 530 nM.

In turn, `Cc1cc(-c2cc3c(cc2COC2CCCC2)NC(=O)CC3)cn(C)c1=O` [Compound 70, 7-((cyclopentyloxy)methyl)-6-(1,5-dimethyl-6-oxo-1,6-dihydropyridin-3-yl)-3,4-dihydroquinolin-2(1H)-one] yielded an IC50 of 7820 nM.

Regarding `Cc1cc(-c2cc3c(c(OCc4cncnc4)c2)NC(=O)CC3)cn(C)c1=O` [Compound 53, 6-(1,5-dimethyl-6-oxo-1,6-dihydropyridin-3-yl)-8-(pyrimidin-5-ylmethoxy)-3,4-dihydroquinolin-2(1H)-one], the IC50 came to 2080 nM.

Turning to `Cc1cc(-c2cc(COC3CCCC3)c3c(c2)NC(=O)CC3)cn(C)c1=O` [Compound 100, 5-((cyclopentyloxy)methyl)-7-(1,5-dimethyl-6-oxo-1,6-dihydropyridin-3-yl)-3,4-dihydroquinolin-2(1H)-one], 610 nM corresponded to half-maximal inhibition (IC50).

Molecule `Cc1cc(-c2ccc3c(c2COC2CCCC2)CCC(=O)N3)cn(C)c1=O` [Compound 68, 5-((cyclopentyloxy)methyl)-6-(1,5-dimethyl-6-oxo-1,6-dihydropyridin-3-yl)-3,4-dihydroquinolin-2(1H)-one] returned an IC50 of 8560 nM.

`Cc1cc(-c2ccc3c(c2Cc2ccccc2C#N)CCC(=O)N3)cn(C)c1=O` [Compound 89, 2-((6-(1,5-dimethyl-6-oxo-1,6-dihydropyridin-3-yl)-2-oxo-1,2,3,4-tetrahydroquinolin-5-yl)methyl)benzonitrile] yielded an IC50 of 560 nM.

On to `Cc1cc(-c2cc3c(cc2COC2CCC2)NC(=O)CC3)cn(C)c1=O` [Compound 69, 7-(cyclobutoxymethyl)-6-(1,5-dimethyl-6-oxo-1,6-dihydropyridin-3-yl)-3,4-dihydroquinolin-2(1H)-one], for which it took 1250 nM to reach half-maximal inhibition (IC50).

For the molecule `Cc1cc(-c2cc3c(c(OCc4cscn4)c2)NC(=O)CC3)cn(C)c1=O` [Compound 82, 6-(1,5-dimethyl-6-oxo-1,6-dihydropyridin-3-yl)-8-(thiazol-4-ylmethoxy)-3,4-dihydroquinolin-2(1H)-one], the IC50 worked out at 250 nM.

Molecule `Cc1cc(-c2cc3c(cc2Cc2ccccc2)CCC(=O)N3)cn(C)c1=O` [Compound 31, 6-benzyl-7-(1,5-dimethyl-6-oxo-1,6-dihydropyridin-3-yl)-3,4-dihydroquinolin-2(1H)-one] returned an IC50 of 290 nM.

`Cn1cc(-c2cc3c(c(OCc4cccnc4)c2)NC(=O)CC3)cc(Cl)c1=O` [Compound 80, 6-(5-chloro-1-methyl-6-oxo-1,6-dihydropyridin-3-yl)-8-(pyridin-3-yl-methoxy)-3,4-dihydroquinolin-2(1H)-one] registered a concentration for half-maximal inhibition (IC50) of 520 nM.

Consider `Cc1cc(-c2cc3c(c(Oc4ccccc4)c2)NC(=O)CC3)cn(C)c1=O` [Compound 15, 6-(1,5-dimethyl-6-oxo-1,6-dihydropyridin-3-yl)-8-phenoxy-3,4-dihydroquinolin-2(1H)-one], for which inhibition was half-maximal at 2620 nM (IC50).

Regarding `Cc1cc(-c2cc3c(cc2Cc2cccc(F)c2)NC(=O)CC3)cn(C)c1=O` [Compound 85, 6-(1,5-dimethyl-6-oxo-1,6-dihydropyridin-3-yl)-7-(3-fluorobenzyl)-3,4-dihydroquinolin-2(1H)-one], the IC50 came to 350 nM.

Regarding `Cc1cc(-c2ccc3c(c2Cc2ccccn2)CCC(=O)N3)cn(C)c1=O` [Compound 57, 6-(1,5-dimethyl-6-oxo-1,6-dihydropyridin-3-yl)-5-(pyridin-2-ylmethyl)-3,4-dihydroquinolin-2(1H)-one], the midpoint of inhibition, the IC50, lay at 240 nM.

`Cc1cc(-c2cc3c(cc2Cc2ccccn2)NC(=O)CC3)cn(C)c1=O` [Compound 61, 6-(1,5-dimethyl-6-oxo-1,6-dihydropyridin-3-yl)-7-(pyridin-2-ylmethyl)-3,4-dihydroquinolin-2(1H)-one] returned a half-maximal inhibitory concentration (IC50) of 890 nM.

`Cc1cc(-c2ccc3c(c2CCc2ccccc2)CCC(=O)N3)cn(C)c1=O` [Compound 96, 6-(1,5-dimethyl-6-oxo-1,6-dihydropyridin-3-yl)-5-phenethyl-3,4-dihydroquinolin-2(1H)-one]: the IC50 was determined as 780 nM.

The molecule `Cc1cc(-c2cc3c(c(N(C)Cc4ccccc4)c2)NC(=O)CC3)cn(C)c1=O` [Compound 5, 8-[benzyl(methyl)amino]-6-(1,5-dimethyl-6-oxo-3-pyridyl)-3,4-dihydro-1H-quinolin-2-one] gave an IC50 of 250 nM.

In the case of `Cc1cc(-c2cc3c(cc2Cc2ccc(F)cc2)NC(=O)CC3)cn(C)c1=O` [Compound 90, 6-(1,5-dimethyl-6-oxo-1,6-dihydropyridin-3-yl)-7-(4-fluorobenzyl)-3,4-dihydroquinolin-2(1H)-one], the IC50 worked out at 240 nM.

With `Cc1cc(-c2cc3c(c(OCc4ccccn4)c2)NC(=O)CC3)cn(C)c1=O` [Compound 26, 6-(1,5-dimethyl-6-oxo-1,6-dihydropyridin-3-yl)-8-(pyridin-2-ylmethoxy)-3,4-dihydroquinolin-2(1H)-one], the IC50 worked out at 280 nM.

For `Cc1cc(-c2cc3c(c(OCC4CCCC4)c2)NC(=O)CC3)cn(C)c1=O` [Compound 29, 8-(cyclopentylmethoxy)-6-(1,5-dimethyl-6-oxo-1,6-dihydropyridin-3-yl)-3,4-dihydroquinolin-2(1H)-one], the IC50 turned out to be 190 nM.

Still in this test, the particulars now being: inhibition of C-Myc mRNA, 4 hours treatment.
Turning to `Cc1cc(-c2cc3c(c(NC(C)c4ccccn4)c2)NC(=O)CC3)cn(C)c1=O` (centres unmarked) [Compound 23, 6-(1,5-dimethyl-6-oxo-3-pyridyl)-8-[1-(2-pyridyl)ethylamino]-3,4-dihydro-1H-quinolin-2-one], the midpoint of inhibition, the IC50, lay at 240 nM.

In turn, `Cc1cc(-c2cc3c(c(OC(C)c4cccnc4)c2)NC(=O)CC3)cn(C)c1=O` (single isomer, unassigned) [Compound 92b, 6-(1,5-dimethyl-6-oxo-1,6-dihydropyridin-3-yl)-8-(1-(pyridin-3-yl)ethoxy)-3,4-dihydroquinolin-2(1H)-one] gave an IC50 of 510 nM.

With `Cc1cc(-c2cc3c(c(COC4CCCOC4)c2)NC(=O)CC3)cn(C)c1=O` (centres unmarked) [Compound 48b, 6-(1,5-dimethyl-6-oxo-1,6-dihydropyridin-3-yl)-8-(((tetrahydro-2H-pyran-3-yl)oxy)methyl)-3,4-dihydroquinolin-2(1H)-one], the midpoint of inhibition, the IC50, lay at 2740 nM.

As usually defined, the IC50 is the concentration that inhibits the measured activity by half. A high value points to lower potency.
